# Results: patent US8623862B2, “Derivatives of N-[(1H-pyrazol-1-yl)aryl]-1H-indole or 1H-indazole-3-carboxamide, preparation thereof and applications thereof in therapeutics” (Sanofi, priority 2011, dated 2014)
# Counter-ions that a name gives are not always drawn. Like-named read-outs stand apart in the source and are kept apart here.
# Test system: platelet aggregation
# Test: Inhibition of platelet aggregation in vitro (rat blood);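 as to Inhibition of platelet aggregation in vitro (rat blood) in μM: aggregation induced by ADP added as 4 µL of a 250 µM solution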
# Type: cell-based
# Description: The measurements of platelet aggregation are performed at 37° C. in glass tubes (Chrono-Log—Kordia aggregometer).
# Inhibition of Platelet Aggregation In Vitro (Rat Blood)
# The blood is taken from male rats of the Sprague-Dawley strain, weighing 250-300 g.
# The platelet-rich plasma (PRP) is obtained by centrifugation of the blood at 300 g for 5 minutes, and the measurements of platelet aggregation are performed as described above.
# The results are calculated using the area under the curve of absorbance measured for 6 minutes, and expressed as percentage inhibition.
# [1] = rat blood, in vitro, read-out: Inhibition of platelet aggregation in vitro (rat blood);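 as to Inhibition of platelet aggregation in vitro (rat blood) in μM: aggregation induced by ADP added as 4 µL of a 250 µM solution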
# [2] = rat platelet-rich plasma, ADP-induced aggregation, area under the curve of absorbance for 6 minutes, read-out: Inhibition of platelet aggregation in vitro (rat blood);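 as to Inhibition of platelet aggregation in vitro (rat blood) in μM: aggregation induced by ADP added as 4 µL of a 250 µM solution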
# [3] = 0.1 h, rat platelet-rich plasma, ADP-induced aggregation, area under the curve of absorbance for 6 minutes, read-out: Inhibition of platelet aggregation in vitro (rat blood);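 as to Inhibition of platelet aggregation in vitro (rat blood) in μM: aggregation induced by ADP added as 4 µL of a 250 µM solution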
SMILES,IC50 [1] [µM],IC50 [2] [µM],also measured
CCCC(=O)c1cnn(-c2ccc(NC(=O)c3cn(CC(=O)N(C)CCNC)c4ccc(C)cc34)cc2)c1C [Compound 126],0.76,–,–
CCCC(=O)c1cnn(-c2ccc(NC(=O)c3cn(CC(=O)N4CC5CCCN5CC4C)c4ccc(Cl)cc34)nn2)c1C (stereo not shown) [Compound 88],–,0.09,–
CCCC(=O)c1cnn(-c2ccc(NC(=O)c3cn(CC(=O)N(C)CCN(C)C)c4cc(C)c(C)cc34)cc2)c1C [Compound 110],3.99,–,–
CCCC(=O)c1cnn(-c2ccc(NC(=O)c3cn(CC(=O)NCc4cc(C)no4)c4ccc(Cl)cc34)nn2)c1C [Compound 96],–,0.93,–
CCCC(=O)c1cnn(-c2ccc(NC(=O)c3cn(CC(=O)N4CCC(NC)CC4)c4ccc(C)cc34)cc2)c1C [Compound 248],–,0.32,–
CCCC(=O)c1cnn(-c2ccc(NC(=O)c3cn(CC(=O)N4CC5CN(C)CC5C4)c4ccc(C)cc34)cc2)c1C (stereo not shown) [Compound 266],–,0.4,–
CCCC(=O)c1cnn(-c2ccc(NC(=O)c3cn(CC(=O)N4CCN(C)C(C)C4)c4ccc(C)cc34)cc2)c1C (stereo not shown) [Compound 269],–,0.35,–
CCCC(=O)c1cnn(-c2ccc(NC(=O)c3cn(CC(=O)N4CCN(CCN(C)C)CC4)c4ccc(Cl)cc34)nn2)c1C [Compound 98],–,0.07,–
CCCC(=O)c1cnn(-c2ccc(NC(=O)c3cn(CC(=O)N4CC(C)NC(C)C4)c4ccc(Cl)cc34)nn2)c1C (stereo not shown) [Compound 43],–,0.12,–
CCCC(=O)c1cnn(-c2ccc(NC(=O)c3cn(CC(=O)N(C)CCO)c4cc(C)c(C)cc34)cc2)c1C [Compound 108],0.98,–,–
"CCCC(=O)c1cnn(-c2ccc(NC(=O)c3cn(CC(=O)O)c4ccc(Cl)cc34)cc2)c1C [Compound 3, (3-{[4-(4-butyryl-5-methyl-1H-pyrazol-1-yl)phenyl]carbamoyl}-5-chloro-1H-indol-1-yl)acetic acid]",–,–,IC50 [3]: 2.8 µM
CCCC(=O)c1cnn(-c2ccc(NC(=O)c3cn(CC(=O)O)c4ccc(C(F)(F)F)cc34)cc2)c1C [Compound 13],–,4.6,–
CCCC(=O)c1cnn(-c2ccc(NC(=O)c3cn(CC(=O)N4CCOCC4)c4ccc(Cl)cc34)nn2)c1C [Compound 35],–,0.19,–
CCCC(=O)c1cnn(-c2ccc(NC(=O)c3cn(CC(=O)N4CCN(C(C)(C)CO)CC4)c4ccc(Cl)cc34)cc2)c1C [Compound 181],0.18,–,–
CCCC(=O)c1cnn(-c2ccc(NC(=O)c3cn(CC(=O)N4CCCC(N)C4)c4ccc(C)cc34)cc2)c1C (stereo not shown) [Compound 244],–,0.96,–
CCCC(=O)c1cnn(-c2ccc(NC(=O)c3cn(CC(=O)N4CCN(C)CC4)c4ccc(C)cc34)cc2)c1C [Compound 114],0.27,–,–
CCCC(=O)c1cnn(-c2ccc(NC(=O)c3cn(CC(=O)N4CCN(CC(=O)NC5CC5)CC4)c4ccc(Cl)cc34)nn2)c1C [Compound 81],–,0.04,–
CCCC(=O)c1cnn(-c2ccc(NC(=O)c3cn(CC(=O)N4CCN(CC(=O)OCC)CC4)c4ccc(Cl)cc34)cc2)c1C [Compound 155],0.26,–,–
CCCC(=O)c1cnn(-c2ccc(NC(=O)c3cn(CC(=O)N4CCC(C(F)(F)F)C4)c4ccc(Cl)cc34)nn2)c1C (stereo not shown) [Compound 75],–,0.27,–
CCCC(=O)c1cnn(-c2ccc(NC(=O)c3cn(CC(=O)N4CCN(CCN(C)C(C)=O)CC4)c4ccc(Cl)cc34)cc2)c1C [Compound 211],0.28,–,–

SMILES,IC50 [1] [µM],IC50 [2] [µM],also measured
CCCC(=O)c1cnn(-c2ccc(NC(=O)c3cn(CC(=O)N4CCN(C)CC4)c4cc(F)c(Cl)cc34)cc2)c1C [Compound 157],0.18,–,–
CCCC(=O)c1cnn(-c2ccc(NC(=O)c3cn(CC(=O)N4CC5CC4CN5C)c4ccc(C)cc34)cc2)c1C (stereo not shown) [Compound 264],–,0.56,–
CCCC(=O)c1cnn(-c2ccc(NC(=O)c3cn(CC(=O)N4CCN(CCN(C)C)CC4)c4ccc(Cl)cc34)cc2)c1C [Compound 150],0.24,–,–
CCCC(=O)c1cnn(-c2ccc(NC(=O)c3cn(CC(=O)N4CCN(CCO)CC4)c4ccc(C)cc34)cc2)c1C [Compound 116],0.26,–,–
CCCC(=O)c1cnn(-c2ccc(NC(=O)c3cn(CC(=O)N(C)Cc4ccco4)c4ccc(Cl)cc34)nn2)c1C [Compound 62],–,0.15,–
CCCC(=O)c1cnn(-c2ccc(NC(=O)c3cn(CC(=O)NC4CCNC4)c4ccc(C)cc34)cc2)c1C (stereo not shown) [Compound 245],–,0.53,–
"CCCC(=O)c1cnn(-c2ccc(NC(=O)c3cn(CC(=O)N4CCNC(C)C4)c4ccc(C)cc34)cc2)c1C (stereo not shown) [Compound 242, N-[4-(4-Butyryl-5-methyl-1H-pyrazol-1-yl)phenyl]-5-methyl-1-[2-(3-methylpiperazin-1-yl)-2-oxoethyl]-1H-indole-3-carboxamide hydrochloride]",–,–,IC50 [3]: 0.51 µM
CCCC(=O)c1cnn(-c2ccc(NC(=O)c3cn(CC(=O)N(C)C4CC4)c4ccc(Cl)cc34)nn2)c1C [Compound 90],–,0.06,–
CCCC(=O)c1cnn(-c2ccc(NC(=O)c3cn(CC(=O)N4CCCCC4CN4CCCC4)c4ccc(C)cc34)cc2)c1C (stereo not shown) [Compound 141],0.64,–,–
CCCC(=O)c1cnn(-c2ccc(NC(=O)c3cn(CC(=O)N4CCN(CCO)CC4)c4ccc(Cl)cc34)cc2)c1C [Compound 146],0.1,–,–
CCCC(=O)c1cnn(-c2ccc(NC(=O)c3cn(CC(=O)N4CCN(C)CC4)c4ccc(C(F)(F)F)cc34)cc2)c1C [Compound 203],0.36,–,–
CCCC(=O)c1cnn(-c2ccc(NC(=O)c3cn(CC(=O)N(C)CCOC)c4ccc(Cl)cc34)nn2)c1C [Compound 61],–,0.09,–
"CCCC(=O)c1cnn(-c2ccc(NC(=O)c3cn(CC(=O)N4CCN(CCOC(F)(F)F)CC4)c4ccc(Cl)cc34)nn2)c1C [Compound 30, N-[6-(4-Butyryl-5-methyl-1H-pyrazol-1-yl)pyridazin-3-yl]-5-chloro-1-(2-oxo-2-{4-[2-(trifluoromethoxy)ethyl]piperazin-1-yl}ethyl)-1H-indole-3-carboxamide hydrochloride]",–,–,"IC50 (Rattus norvegicus, Platelet, 0.1 h, read-out: Inhibition of platelet aggregation in vitro (rat blood) in μM): 0.1 µM"
CCCC(=O)c1cnn(-c2ccc(NC(=O)c3cn(CC(=O)N4CCC(OC)CC4)c4ccc(Cl)cc34)nn2)c1C [Compound 94],–,0.18,–
CCCC(=O)c1cnn(-c2ccc(NC(=O)c3cn(CC(=O)N4CCC(NC)C4)c4ccc(C)cc34)cc2)c1C (stereo not shown) [Compound 250],–,0.61,–
CCCC(=O)c1cnn(-c2ccc(NC(=O)c3cn(CC(=O)N4CCCN(C)CC4)c4ccc(C)cc34)cc2)c1C [Compound 130],0.47,–,–
CCCC(=O)c1cnn(-c2ccc(NC(=O)c3cn(CC(=O)N4CCN(Cc5ccc(OC)c(F)c5)CC4)c4ccc(Cl)cc34)nn2)c1C [Compound 85],–,0.1,–
CCCC(=O)c1cnn(-c2ccc(NC(=O)c3cn(CC(=O)N4CCC(O)CC4)c4ccc(Cl)cc34)nn2)c1C [Compound 68],–,0.07,–
CCC(=O)c1cnn(-c2ccc(NC(=O)c3cn(CC(=O)N4CCN(C)CC4)c4ccc(Cl)cc34)cc2)c1C [Compound 217],0.6,–,–
CCCC(=O)c1cnn(-c2ccc(NC(=O)c3cn(CC(=O)O)c4ccc(N(C)C)cc34)cc2)c1C [Compound 22],–,1.2,–

SMILES,IC50 [1] [µM],IC50 [2] [µM],also measured
CCCC(=O)c1cnn(-c2ccc(NC(=O)c3cn(CC(=O)N4CCN(C)C(C)(C)C4)c4ccc(Cl)cc34)cc2)c1C [Compound 186],0.25,–,–
CCCC(=O)c1cnn(-c2ccc(NC(=O)c3cn(CC(=O)N4CCN(C5CCC5)CC4)c4ccc(Cl)cc34)nn2)c1C [Compound 79],–,0.08,–
CCCC(=O)c1cnn(-c2ccc(NC(=O)c3cn(CC(=O)N4CCN(CC)CC4)c4ccc(C)cc34)cc2)c1C [Compound 117],0.5,–,–
CCCC(=O)c1cnn(-c2ccc(NC(=O)c3cn(CC(=O)N4CC(C)N(C)C(C)C4)c4ccc(C)cc34)cc2)c1C (stereo not shown) [Compound 263],–,0.42,–
CCCC(=O)c1cnn(-c2ccc(NC(=O)c3cn(CC(=O)N4CCC(OCCOC)C4)c4ccc(Cl)cc34)cc2)c1C (stereo not shown) [Compound 206],0.83,–,–
CCCC(=O)c1cnn(-c2ccc(NC(=O)c3cn(CC(=O)N4CCC(O)C4)c4ccc(Cl)cc34)nn2)c1C (racemic) [Compound 49],–,0.22,–
CCCC(=O)c1cnn(-c2ccc(NC(=O)c3cn(CC(=O)N4CCN(C)CC4)c4ccc(Cl)cc34)c(C(N)=O)c2)c1C [Compound 220],0.22,–,–
CCCC(=O)c1cnn(-c2ccc(NC(=O)c3cn(CC(=O)N4CCN(CC(=O)NC)CC4)c4ccc(Cl)cc34)cc2)c1C [Compound 163],0.29,–,–
CCCC(=O)c1cnn(-c2ccc(NC(=O)c3cn(CC(=O)N4CCN(CC(=O)OCC)CC4)c4ccc(Cl)cc34)nn2)c1C [Compound 34],–,0.09,–
CCCC(=O)c1cnn(-c2ccc(NC(=O)c3cn(CC(=O)N4CCCC(NC)C4)c4ccc(C)cc34)cc2)c1C (stereo not shown) [Compound 251],–,0.54,–
CCCC(=O)c1cnn(-c2ccc(NC(=O)c3cn(CC(=O)N4CCNCC4CO)c4ccc(C)cc34)cc2)c1C (stereo not shown) [Compound 254],–,0.19,–
CCCC(=O)c1cnn(-c2ccc(NC(=O)c3cn(CC(=O)N(C)CCOC)c4ccc(Cl)cc34)cc2)c1C [Compound 200],0.48,–,–
CCCC(=O)c1cnn(-c2ccc(NC(=O)c3cn(CC(=O)N4CCN(CC(=O)NC(C)C)CC4)c4ccc(Cl)cc34)nn2)c1C [Compound 39],–,0.04,–
CCCC(=O)c1cnn(-c2ccc(NC(=O)c3cn(CC(=O)N4CCN(C(C)=O)CC4)c4ccc(Cl)cc34)nn2)c1C [Compound 42],–,0.15,–
CCCC(=O)c1cnn(-c2ccc(NC(=O)c3cn(CC(=O)N4CCN(C)CC4)c4ccc(OC)cc34)cc2)c1C [Compound 136],0.4,–,–
CCCC(=O)c1cnn(-c2ccc(NC(=O)c3cn(CC(=O)N4CCN(C5CC5)CC4)c4ccc(C)cc34)cc2)c1C [Compound 122],0.45,–,–
CCCC(=O)c1cnn(-c2ccc(NC(=O)c3cn(CC(=O)O)c4cc(C)ccc34)cc2)c1C [Compound 8],–,63,–
CCCC(=O)c1cnn(-c2ccc(NC(=O)c3cn(CC(=O)O)c4ccc(F)cc34)cc2)c1C [Compound 18],–,36,–
